This note sets out measurements from US12187814B1, “Stapled antimicrobial peptide” (KING SAUD UNIVERSITY, priority 2024, dated 2025).

Assay [1] concerns Staphylococcus aureus. Nature of the assay: Agar diffusion test (modified Kirby-Bauer), zone of inhibition. The assay is classed as cell-based. As to conditions: 30 μl per well, sAMP1 100 μg/ml, Kanamycin 50 μg/ml, 24 hours. An excerpt: (§1) The agar diffusion method was used to examine the synthesized AMP's antibacterial activity. Pure colonies of Staphylococcus aureus and MRSA were used for antibacterial susceptibility testing according to Clinical Laboratory Standards Institute (CLSI) 2021 guideline) by using a modified Kirby-Bauer disk diffusion technique (Humphries, R. et al, “Overview of Changes to the Clinical and Laboratory Standards Institute Performance Standards for Antimicrobial Susceptibility Testing”, M100, 31st Edition, J. Clin. Microbiol. 2021 Nov. 18; 59 (12): e0021321). In brief, homogeneous colonies were chosen from each microbial strain and grown on Mullar Hilton broth at log phase. 0.5 McFarland standard culture was used to spread on to the Mullar Hilton agar plates. Freshly prepared (30 μl each) of Kanamycin 50 μg/ml and sAMP1 100 μg/ml was poured into 4 mm diameter well, blank well with an equivalent amount of saline served as a […] control. The plates were incubated for 24 hours, and the diameter of the inhibition zone was measured to determine susceptibility or resistance. The full analysis was carried out three times.

The subject of assay [2] is MRSA. The assay is described as above. It counts as cell-based, Staphylococcus aureus. As to conditions: 30 μl per well, sAMP1 100 μg/ml, Kanamycin 50 μg/ml, 24 hours.
From the text: as §1

Assay [3] concerns Staphylococcus aureus. Description: microbe, parasite or virus in culture.
Assay [4] concerns MRSA. Description: microbe, parasite or virus in culture. The settings on record: Staphylococcus aureus.
The test system of assay [5] is MRSA.
The subject of assay [6] is MCF-7 breast cancer cells.
Description: Cytotoxicity & MTT Testing
(§2) Cell line MCF-7 and A549 cells were cultured under CO2 (5%) at 37° C. using Dulbecco's Modified Eagle's Medium (DMEM), accompanied with 1% mixture of “Penicillin-Streptomycin”, 10% Fetal Bovine Serum (FBS) and 1% L-Glutamine.

Molecules are shown by their SMILES. Values after ≈ are worked out from the molar mass of the structure shown. Where two headings read alike, the source gives them in different places. Bridge positions count the residues as written; N and C are the ends. Square brackets hold non-standard residues; d marks the D form. Peptide text beside a SMILES is read from it. S5 = C=CCCC[C@](C)(N)C(=O)O

Description for A549 lung cancer cells: Cytotoxicity & MTT Testing
as §2

In the case of `NC[C@H]1O[C@H](O[C@H]2[C@H](O)[C@@H](O[C@H]3O[C@H](CO)[C@@H](O)[C@H](N)[C@H]3O)[C@H](N)C[C@@H]2N)[C@H](O)[C@@H](O)[C@@H]1O` [Kanamycin, reference compound], the zone of inhibition at 50 µg/mL amounted to 19.1 ± 1.38 mm in the assay with Staphylococcus aureus [1] (read-out: Zone of Inhibition (mm), Mean ± SD, n = 3) and 21.6 ± 2.17 mm in the assay with MRSA [2] (Staphylococcus aureus, read-out: Zone of Inhibition (mm), Mean ± SD, n = 3). In addition, the MIC in the assay on Staphylococcus aureus [3] and in the assay with MRSA [4] was 3.12 µg/mL (≈ 6.45 µM) in each case.

Take `CC[C@H](C)[C@H](NC(=O)[C@H](CCCNC(=N)N)NC(=O)[C@H](CCCCN)NC(=O)[C@]1(C)CCCC=CCCC[C@](C)(NC(=O)[C@H](CCCCN)NC(=O)[C@H](CCC(=O)O)NC(=O)[C@H](CCCCN)NC(=O)[C@H](CO)NC(=O)[C@H](CCCCN)NC(=O)[C@H](CCCNC(=N)N)NC(=O)[C@H](Cc2ccccc2)NC(=O)[C@@H](N)Cc2ccccc2)C(=O)NCC(=O)N[C@@H](CCCCN)C(=O)N[C@@H](CCC(=O)O)C(=O)N1)C(=O)N[C@H](C(N)=O)C(C)C` [sAMP1, FFRKSKEK-S5-GKE-S5-KRIV] (H-FFRKSKEK[S5]GKE[S5]KRIV-NH2; staple 9-13; N-terminus assumed): the “Zone of Inhibition (mm), Mean ± SD, n = 3” value with Staphylococcus aureus [1] stood at 22.52±2.15 mm; with MRSA [2], 25.31±1.53 mm. Moreover, the “MIC 96-well plate result (growth), replicates 1-3” value in the assay with MRSA [5] (sAMP1 1.5625 μg/ml (row G)), against MRSA [5] (sAMP1 3.125 μg/ml (row F)), against MRSA [5] (sAMP1 6.25 μg/ml (row E)) and in the assay on MRSA [5] (sAMP1 12.5 μg/ml (row D)) was “Growth” each time. For the same compound, the figures for the “IC50 cell proliferation (MTT)” value (in assay [6] (24 h); with A549 lung cancer cells (24 h)) were 35.82 µg/mL (≈ 16.8 µM) and 54.22 µg/mL (≈ 25.5 µM), respectively. Also, the “anti-cell proliferation (MTT assay)” value (in assay [6] (MCF-7 cells); in the assay with A549 lung cancer cells (A549 cells)) was “dose-dependent anti-cell proliferation” each time. In addition, the effect on proliferation result in assay [6] (MCF-7 cells, 25 μg/ml) is listed as “significantly reduced the proliferation”; in the assay on A549 lung cancer cells (A549 cells, 25 μg/ml), “significantly reduced the proliferation”.
